In patent publication US11827628B2, “Compositions and methods for inhibition of the JAK pathway” (Rigel Pharmaceuticals, Inc., priority 2005, dated 2023):
Structures can show the parent of a compound that is named as a salt. Where two headings read alike, the source gives them in different places.

Tested on: up-regulation of ICAM-1 (CD54) by IFNγ in U937 human monocytic cells
Assay: U937 IFNγ ICAM1 FACS Assay
Assay type: cell-based
Conditions: U937 cells stimulated with IFNγ, ICAM-1 expression by FACS, read-out: IC50, Example 44
Procedure, shortened: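 U937 cells in 10% FCS RPMI were preincubated 30 min at 37 °C with an 8-point, 3-fold compound dilution series in duplicate, then stimulated with IFNγ for 18–24 h. Surface ICAM-1 was stained with APC anti-ICAM-1 and read by flow cytometry as geometric mean on live-gated cells. EC50 was derived.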

| Compound | IC50 [µM] | IC50 (hydrochloride) [µM] |
| --- | --- | --- |
| COCCOc1ccc(Nc2nc(Nc3ccc(C)c(S(N)(=O)=O)c3)ncc2F)cc1 [VI-112, N2-(3-Aminosulfonyl-4-methylphenyl)-5-fluoro-N4-[4-(2-methoxyethyleneoxy)phenyl]-2,4-pyrimdinediamine] | 1.26 | – |
| CS(=O)(=O)N1CCc2cc(Nc3nc(Nc4cccc(S(N)(=O)=O)c4)ncc3F)ccc21 [VII-60, N2-(3-Aminosulfonylphenyl)-5-fluoro-N4-[4-(1-methylsulfonyl)indolin-5-yl]-2,4-pyrimidinediamine] | 0.57 | – |
| Cc1cc(Nc2nc(Nc3ccc(C)c(S(N)(=O)=O)c3)ncc2F)ccc1OC(C)C(N)=O (racemic) [Compound I-121, Racemic N4-[4-(1-Aminocarbonyl)ethoxy-3-methyl]phenyl-N2-(3-aminosulfonyl-4-methyl)phenyl-5-fluoro-2,4-pyrimidinediamine] | 2.99 | – |
| CNS(=O)(=O)c1cc(Nc2ncc(F)c(Nc3cccc(OCc4cccnc4)c3)n2)ccc1C [Compound I-184, 5-Fluoro-N2-[3-(N-methylaminosulfony)-4-methylphenyl]-5-fluoro-N4-[3-(3-pyridinyl)methyleneoxyphenyl]-2,4-pyrimidinediamine] | 6.62 | – |
| Cc1ccc(Nc2ncc(F)c(Nc3ccc(OC(C)C(N)=O)cc3)n2)cc1S(N)(=O)=O (centres unmarked) [Compound I-118, N4-[4-(1-Aminocarbonyl)ethoxy]phenyl-N2-(3-aminosulfonyl-4-methyl)phenyl-5-fluoro-2,4-pyrimidinediamine] | 2.43 | – |
| Cc1cc(Nc2nc(Nc3cccc(S(N)(=O)=O)c3)ncc2F)cc(C)c1OC(C)C(N)=O (racemic) [Compound I-123, Racemic N4-[4-(1-Aminocarbonyl)ethoxy-3,5-dimethyl]phenyl-N2-(3-aminosulfonyl)phenyl-5-fluoro-2,4-pyrimidinediamine] | 2.22 | – |
| CNS(=O)(=O)c1cc(Nc2ncc(F)c(Nc3ccc(Cn4ccnc4)cc3)n2)ccc1C [III-85, 5-Fluoro-N2-[3-(N-methylaminosulfony)-4-methylphenyl]-N4-[4-(1-imidazolylmethyl)phenyl]-2,4-pyrimidinediamine hydrochloride] | – | 3.62 |
| COCCCn1ncc2cc(Nc3nc(Nc4cccc(S(N)(=O)=O)c4)ncc3F)ccc21 [VII-22, N2-(3-Aminosulfonylphenyl)-5-fluoro-N4-[1-(3-methoxypropyl)indazolin-5-yl]-2,4-pyrimidinediamine] | 0.849 | – |
| Cc1cc(COc2cccc(Nc3nc(Nc4ccc(C)c(S(N)(=O)=O)c4)ncc3F)c2)no1 [Compound I-214] | 1.3 | – |
| N4-(3-Chloro-4-cyanomethyleneoxyphenyl)-5-fluoro-N2-(5-methyl-2H-1,1-dioxide-1,2,4-benzothiadiazin-7-yl)-2,4-pyrimidinediamine [VIII-2] | 8.55 | – |
| CCS(=O)(=O)N1CCc2cc(Nc3nc(Nc4cccc(S(N)(=O)=O)c4)ncc3F)ccc2C1 [VII-14, N2-(3-aminosulfonyl)phenyl-N4-[(N-ethylsulfonyl)-1,2,3,4-tetrahydroisoquinolin-6-yl]-5-fluoro-2,4-pyrimidinediamine] | 0.877 | – |
| Cc1ccc(Nc2ncc(F)c(Nc3ccc4c(c3)CNCC4)n2)cc1S(N)(=O)=O [VII-16, N2-(3-Aminosulfonyl-4-methylphenyl)-5-fluoro-N4-(1,2,3,4-tetrahydroisoquin-7-yl)-2,4-pyrimidinediamine] | 24.4 | – |
| N#CCN1C(=O)CSc2ccc(Nc3nc(Nc4cccc(S(N)(=O)=O)c4)ncc3F)cc21 [VII-36, N2-(3-Aminosulphonylphenyl)-5-fluoro-N4-(3-oxo-4-cyanomethyl-benzo[1,4]thiazin-6-yl)-2,4-pyrimidinediamine] | 1.09 | – |
| Cc1ccc(Nc2ncc(F)c(Nc3ccc4c(c3)NC(=O)CS4)n2)cc1S(N)(=O)=O [VII-45, N2-(3-Aminosulphonyl-4-methyl-phenyl)-5-fluoro-N4-(3-oxo-4H-benzo[1,4]thiazin-6-yl)-2,4-pyrimidinediamine] | 0.477 | – |
| CC(C)(Oc1ccc(Nc2nc(Nc3cccc(S(N)(=O)=O)c3)ncc2F)cc1)C(N)=O [Compound I-126, N4-[4-(1-Aminocarbonyl-1-methyl)ethoxy]phenyl-N2-(3-aminosulfonyl)phenyl-5-fluoro-2,4-pyrimidinediamine] | 7.2 | – |
| NC1CCOc2ccc(Nc3nc(Nc4ccc(S(N)(=O)=O)cc4)ncc3F)cc21 (centres unmarked) [VII-29, N2-(4-Aminosulfonylphenyl)-N4-(chroman-4-amine-6-yl)-5-fluoro-2,4-pyrimidinediamine] | 38.5 | – |
| COCCn1ncc2cc(Nc3nc(Nc4cccc(S(N)(=O)=O)c4)ncc3F)ccc21 [VII-23, N2-(3-Aminosulfonylphenyl)-5-fluoro-N4-[1-(2-methoxyethyl)indazolin-5-yl]-2,4-pyrimidinediamine] | 0.596 | – |
